Results reported in paper PMC11570809, “Novel N-phenyl-2-(aniline) benzamide hydrochloride salt development for colon cancer therapy” (Frontiers in Pharmacology, 2024).
Where a name gives a salt, the structure may show the parent alone. Read-outs that look alike come from different tables or passages of the source.

How the values were obtained:
Human COX-2 = molecular target: T1, Human COX-2 (Homo sapiens, UniProt P35354); assay: COX-2 inhibition assay (Human COX-2 Inhibitor Screening Kit); type: biochemical
T1 construct: purchased Beyotime S0168
T1 sequence (P35354 18-604): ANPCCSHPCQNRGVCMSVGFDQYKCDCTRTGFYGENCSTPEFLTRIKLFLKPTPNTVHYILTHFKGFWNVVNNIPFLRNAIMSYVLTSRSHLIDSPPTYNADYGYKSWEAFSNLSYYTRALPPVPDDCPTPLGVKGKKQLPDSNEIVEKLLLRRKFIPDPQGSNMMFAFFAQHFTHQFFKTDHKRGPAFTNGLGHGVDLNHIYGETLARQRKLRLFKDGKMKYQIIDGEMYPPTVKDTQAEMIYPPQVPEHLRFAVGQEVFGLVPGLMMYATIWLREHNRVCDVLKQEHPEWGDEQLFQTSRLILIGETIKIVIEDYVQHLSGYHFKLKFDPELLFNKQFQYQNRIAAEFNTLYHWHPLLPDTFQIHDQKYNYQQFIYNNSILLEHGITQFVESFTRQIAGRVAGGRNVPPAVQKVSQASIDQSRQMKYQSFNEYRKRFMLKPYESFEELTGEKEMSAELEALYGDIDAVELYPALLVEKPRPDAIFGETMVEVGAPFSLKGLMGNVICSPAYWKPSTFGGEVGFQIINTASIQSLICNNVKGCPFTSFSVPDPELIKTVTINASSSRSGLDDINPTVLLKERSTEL
Description: The COX-2 inhibitory activity of all the synthesized compounds was measured by the Human COX-2 Inhibitor Screening Kit (Beyotime, catalog no. S0168), and the specific steps were followed strictly according to the instructions. The lead compound N53 was also tested for reference purposes. The absorbance was measured at an excitation wavelength of 560 nm and an emission wavelength of 590 nm in a microplate reader. Each experimental condition was performed in triplicate and averaged.

HCT116 = assay: MTT anti-proliferation assay, HCT116; type: cell-based, human; conditions: 72 h, read-out: IC50 ± SD HCT116
Description: (§1) The anti-proliferation activities of synthesized compounds to colon cancer cell lines were measured by the MTT (3-[4,5-dimethyl-2-thiazolyl]-2,5-diphenyl-2H-tet razolium bromide) assay. First, the cell suspension was prepared by trypsin and the corresponding medium, cells were diluted to 5 × 10^5 cells/mL, and 96-well plates were added 200 μL per well. The plates were maintained at 37°C in a humidified atmosphere containing 5% CO2 overnight. Then compounds at gradient concentrations were added to cells in the logarithmic phase to make the final concentration at 0.5, 1, 2, 4, 8, 16, and 32 μM. The cells were treated with tested compounds for 72 h, and the growth curve assay was tested in 24 h. When the time was up, 20 μL of MTT solution (5 mg/mL in PBS) was added into each well to incubate for 4 h at 37°C. Then the supernatant liquid was removed, 150 μL DMSO was added into every well to dissolve formazan crystals and read the absorbance at 570 nm by Spark microplate spectrophotometer (Tecan, Swiss). The IC50 values were analyzed by IBM SPASS Statistics 25.0 software. The data are all derived from three parallel experiments (n = 3) and expressed as mean ± SD.

RKO = assay: MTT anti-proliferation assay, RKO; type: cell-based, human; conditions: 72 h, read-out: IC50 ± SD RKO
Description: as §1

HT29 xenograft = assay: HT29 nude xenograft model; type: in vivo, BALB/c nude mice; conditions: 15 mg/kg once a day p.o., 13 days
Description: HT29 cells in the logarithmic growth phase were digested to a cell density of 8 × 10^6/mL, and 100 μL suspension of HT29 was injected subcutaneously in the right axilla of nude mice. The dose selection is based on previously described ([Xiaoling Hu et al., 2022]). When the average tumor volume reached about 300 mm^3, they were randomly divided into 3 groups: N53·HCl (15 mg/kg once a day, p.o.), N53 (15 mg/kg once a day, p.o.), control group. 15 mg/kg N53 and N53·HCl dissolved in normal saline containing 2.5% polyoxyethylene castor oil and 2.5% DMSO were administrated by oral medications, while the Control group was given an equal volume of blank solvent. The tumor volume was measured with a vernier caliper every other days and calculated the tumor volume according to Equation 1. After 13 days of treatment, the mice were sacrificed, the tumors were removed, the tumor weight was weighed, and the tumor growth inhibition rate was calculated. The calculation formula of tumor growth inhibition rate (TGI%) was calculated using Equation 2. The corresponding equations were as follows: Tumor volume mm^3=W^2×L/2 (1) TGI%=1−T−T0 / C−C0×100% (2)
In equations, W and L represent the width and length of the tumor respectively, T and C represent the average volume of the experiment group and control group at the end of the experiment. T0 and C0 represent […].

SMILES | Inhibition rate (%) of COX-2 (2 μM) (Human COX-2) [%] | IC50 (HCT116) [µM] | IC50 (RKO; Homo sapiens, RKO) [µM] | Body weight versus control group (HT29 xenograft) | Tumor inhibition rate (TGI) (HT29 xenograft) [%] | IC50 (RKO) [µM]
Cc1c(Cl)cccc1Nc1ccccc1C(=O)Nc1ccc(N2CCN(C)CC2)cc1 [N53·HCl, 4-(4-(2-((3-chloro-2-methylphenyl)amino)ben-zamido)phenyl)-1-methylpiperazin-1-ium] | 32.5 ± 7.8 | 10.9 ± 1.3 | 7.99 ± 0.85 | no significant difference in body weight | 53.7 | 
Cc1c(Cl)cccc1Nc1ccccc1C(=O)Nc1ccc(N2CCN(C)CC2)cc1 [Compound N53, 2-((3-chloro-2-methylphenyl)amino)-N-(4-(4-methylp-iperazin-1-yl)phenyl)benzamide] | 3.6 ± 1.1 | 3.89 ± 0.41 |  | no significant difference in body weight | 34.7 | 6.29 ± 0.54
